Holding throughout (assay): Kinase selectivity, P33-radiolabeled assay
Holding throughout (type): biochemical
Settings in all cases: 10 μM ATP

One assay deals with T1, ARAF (Homo sapiens, UniProt P10398).
T1 construct: purchased Reaction Biology Corp
T1 sequence (P10398 1-606): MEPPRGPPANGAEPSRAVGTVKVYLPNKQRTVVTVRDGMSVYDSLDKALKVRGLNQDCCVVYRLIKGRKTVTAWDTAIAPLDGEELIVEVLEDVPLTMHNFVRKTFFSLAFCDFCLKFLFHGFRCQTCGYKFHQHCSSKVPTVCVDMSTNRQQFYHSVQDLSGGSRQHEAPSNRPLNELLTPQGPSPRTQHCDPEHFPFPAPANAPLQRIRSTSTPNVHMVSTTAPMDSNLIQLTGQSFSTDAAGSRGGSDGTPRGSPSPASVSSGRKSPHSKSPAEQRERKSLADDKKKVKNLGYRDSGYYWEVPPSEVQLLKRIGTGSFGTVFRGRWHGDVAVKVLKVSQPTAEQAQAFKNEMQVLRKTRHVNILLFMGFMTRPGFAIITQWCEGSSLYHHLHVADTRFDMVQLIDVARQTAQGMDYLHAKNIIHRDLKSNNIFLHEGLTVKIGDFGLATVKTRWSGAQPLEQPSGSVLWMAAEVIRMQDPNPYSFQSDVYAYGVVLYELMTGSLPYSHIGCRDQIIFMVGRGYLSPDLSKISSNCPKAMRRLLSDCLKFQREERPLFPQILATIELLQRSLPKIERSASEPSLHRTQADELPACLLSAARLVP
The procedure, abridged:
(§1)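 Reactions contained 10 μM ATP and 10 μM test compound, each run in duplicate. Kinase activity is expressed as a percentage of DMSO-treated controls.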

The target of the next assay is T2, JAK3 (Homo sapiens, UniProt P52333).
T2 construct: purchased Reaction Biology Corp
T2 sequence (P52333 1-1124): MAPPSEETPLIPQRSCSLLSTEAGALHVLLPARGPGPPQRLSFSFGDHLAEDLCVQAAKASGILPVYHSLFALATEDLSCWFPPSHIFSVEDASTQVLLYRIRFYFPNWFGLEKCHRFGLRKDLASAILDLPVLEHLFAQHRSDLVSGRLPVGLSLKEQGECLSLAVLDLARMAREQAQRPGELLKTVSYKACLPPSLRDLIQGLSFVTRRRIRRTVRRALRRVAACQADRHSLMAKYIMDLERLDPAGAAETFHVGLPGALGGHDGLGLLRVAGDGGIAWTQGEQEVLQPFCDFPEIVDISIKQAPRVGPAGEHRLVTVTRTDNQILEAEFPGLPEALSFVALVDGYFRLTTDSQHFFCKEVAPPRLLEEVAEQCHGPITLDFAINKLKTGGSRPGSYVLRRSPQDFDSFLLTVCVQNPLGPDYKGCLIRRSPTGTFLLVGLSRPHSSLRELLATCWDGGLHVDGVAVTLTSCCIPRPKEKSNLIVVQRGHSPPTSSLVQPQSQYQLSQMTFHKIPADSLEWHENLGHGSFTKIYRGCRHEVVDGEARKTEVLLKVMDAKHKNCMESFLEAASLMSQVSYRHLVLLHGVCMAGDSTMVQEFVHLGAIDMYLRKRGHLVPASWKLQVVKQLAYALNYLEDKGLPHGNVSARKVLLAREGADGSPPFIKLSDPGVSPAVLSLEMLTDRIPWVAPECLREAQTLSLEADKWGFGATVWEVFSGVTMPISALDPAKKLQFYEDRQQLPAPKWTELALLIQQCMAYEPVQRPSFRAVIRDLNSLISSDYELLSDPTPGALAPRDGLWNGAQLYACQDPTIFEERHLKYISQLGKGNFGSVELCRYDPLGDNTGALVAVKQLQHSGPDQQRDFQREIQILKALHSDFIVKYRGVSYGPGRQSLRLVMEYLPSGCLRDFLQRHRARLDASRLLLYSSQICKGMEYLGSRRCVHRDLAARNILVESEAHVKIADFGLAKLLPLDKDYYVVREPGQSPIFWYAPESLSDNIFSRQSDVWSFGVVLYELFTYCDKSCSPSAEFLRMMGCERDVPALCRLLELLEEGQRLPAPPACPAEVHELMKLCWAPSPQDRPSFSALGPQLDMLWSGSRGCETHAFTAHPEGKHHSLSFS
The procedure, abridged:
as §1

The next assay addresses T3, DYRK4 (Homo sapiens, UniProt Q9NR20).
T3 construct: purchased Reaction Biology Corp
T3 sequence (Q9NR20 1-520): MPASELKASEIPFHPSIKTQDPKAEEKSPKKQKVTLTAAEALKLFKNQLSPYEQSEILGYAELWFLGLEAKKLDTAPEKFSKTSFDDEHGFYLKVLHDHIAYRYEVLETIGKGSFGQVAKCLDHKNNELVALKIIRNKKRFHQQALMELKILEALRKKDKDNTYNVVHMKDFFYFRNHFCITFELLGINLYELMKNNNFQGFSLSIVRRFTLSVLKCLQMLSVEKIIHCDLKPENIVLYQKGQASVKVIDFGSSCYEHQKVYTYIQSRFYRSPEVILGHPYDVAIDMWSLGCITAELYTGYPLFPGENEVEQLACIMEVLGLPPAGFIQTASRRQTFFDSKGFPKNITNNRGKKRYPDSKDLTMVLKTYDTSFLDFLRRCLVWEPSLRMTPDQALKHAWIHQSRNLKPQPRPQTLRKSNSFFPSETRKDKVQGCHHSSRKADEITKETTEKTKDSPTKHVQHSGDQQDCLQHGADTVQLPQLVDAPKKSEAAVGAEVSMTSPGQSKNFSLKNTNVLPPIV
The procedure, abridged: as §1

A further assay concerns the target T4, CAMK2g (Homo sapiens, UniProt Q13555).
T4 construct: purchased Reaction Biology Corp
The procedure, abridged: as §1

In another assay the target is T5, p70S6K/RPS6KB1 (Homo sapiens, UniProt P23443).
T5 construct: purchased Reaction Biology Corp
T5 sequence (P23443 whole entry): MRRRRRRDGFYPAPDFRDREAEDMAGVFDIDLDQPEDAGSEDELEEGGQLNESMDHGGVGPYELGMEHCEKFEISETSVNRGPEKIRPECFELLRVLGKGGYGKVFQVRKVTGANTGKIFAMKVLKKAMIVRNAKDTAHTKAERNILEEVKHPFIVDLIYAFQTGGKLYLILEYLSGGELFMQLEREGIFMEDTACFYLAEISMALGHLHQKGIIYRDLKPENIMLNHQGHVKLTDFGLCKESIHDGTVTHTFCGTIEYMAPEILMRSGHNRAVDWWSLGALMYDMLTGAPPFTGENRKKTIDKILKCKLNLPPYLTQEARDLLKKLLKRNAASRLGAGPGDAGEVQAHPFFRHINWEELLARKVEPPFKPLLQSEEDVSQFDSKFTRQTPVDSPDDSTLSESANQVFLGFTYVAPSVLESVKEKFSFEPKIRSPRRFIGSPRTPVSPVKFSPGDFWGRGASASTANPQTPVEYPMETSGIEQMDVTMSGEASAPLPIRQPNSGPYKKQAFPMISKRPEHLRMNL
The procedure, abridged:
as §1

The next assay has as its target T6, CLK2 (Homo sapiens, UniProt P49760).
T6 construct: purchased Reaction Biology Corp
The procedure, abridged: as §1

Where [1] appears, read: read-out: % Enzyme Activity (relative to DMSO controls) AVG.
The mark [2] stands for this setting: read-out: % Enzyme Activity (relative to DMSO controls) Data 1.
Setting [3] is: read-out: % Enzyme Activity (relative to DMSO controls) Data 2.

Read-outs that look alike come from different tables or passages of the source.

T6 sequence (P49760 whole entry): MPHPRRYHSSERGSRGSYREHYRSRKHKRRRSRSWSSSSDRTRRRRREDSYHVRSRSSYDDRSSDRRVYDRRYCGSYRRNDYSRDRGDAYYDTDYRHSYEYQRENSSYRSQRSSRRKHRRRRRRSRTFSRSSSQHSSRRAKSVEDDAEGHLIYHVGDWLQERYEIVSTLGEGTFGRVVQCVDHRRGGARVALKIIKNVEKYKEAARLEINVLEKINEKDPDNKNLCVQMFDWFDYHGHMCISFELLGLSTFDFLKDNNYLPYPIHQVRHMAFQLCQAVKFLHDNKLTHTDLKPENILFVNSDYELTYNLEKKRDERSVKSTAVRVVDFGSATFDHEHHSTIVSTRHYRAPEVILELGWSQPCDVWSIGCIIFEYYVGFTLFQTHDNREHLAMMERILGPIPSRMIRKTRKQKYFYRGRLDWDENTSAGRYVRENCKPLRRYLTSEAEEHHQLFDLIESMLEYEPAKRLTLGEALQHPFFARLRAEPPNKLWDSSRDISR
T4 sequence (Q13555 whole entry): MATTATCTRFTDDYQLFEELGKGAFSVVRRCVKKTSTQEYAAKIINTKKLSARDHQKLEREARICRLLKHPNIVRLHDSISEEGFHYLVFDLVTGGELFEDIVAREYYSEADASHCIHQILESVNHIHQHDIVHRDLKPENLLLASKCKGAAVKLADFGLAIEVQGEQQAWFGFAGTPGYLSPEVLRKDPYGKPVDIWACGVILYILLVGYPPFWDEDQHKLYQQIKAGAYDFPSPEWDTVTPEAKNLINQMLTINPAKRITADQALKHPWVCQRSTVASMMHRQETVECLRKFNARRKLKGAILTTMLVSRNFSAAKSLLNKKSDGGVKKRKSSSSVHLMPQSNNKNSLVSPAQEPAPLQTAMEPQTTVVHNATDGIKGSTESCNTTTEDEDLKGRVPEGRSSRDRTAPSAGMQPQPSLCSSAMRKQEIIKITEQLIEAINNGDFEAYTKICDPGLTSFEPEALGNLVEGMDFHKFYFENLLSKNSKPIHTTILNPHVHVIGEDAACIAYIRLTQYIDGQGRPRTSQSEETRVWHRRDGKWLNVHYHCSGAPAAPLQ

As for `CC(C)(C)C(=O)N1N=CC[C@H]1c1ccccc1` [GSK′963], the remaining activity at 10 µM on ARAF (setting [1]) came to 93.7%; at ARAF (setting [2]), 94.6%; at ARAF (setting [3]) it was 92.9%; at JAK3 (setting [1]) it was 106%; at JAK3 (setting [2]) it was 105%; on JAK3 (setting [3]), 106%. In addition, the remaining activity at 10 µM at DYRK4 (setting [1]) was 101%; at DYRK4 (setting [2]) it was 101%; on DYRK4 (setting [3]), 101%; on CAMK2g (setting [1]) it was 115%; at CAMK2g (setting [2]), 112%; on CAMK2g (setting [3]) it was 118%. Also, the remaining activity at 10 µM at p70S6K/RPS6KB1 (setting [1]) was determined as 99.1%; on p70S6K/RPS6KB1 (setting [2]), 97.4%; on p70S6K/RPS6KB1 (setting [3]) it was 101%; on CLK2 (setting [1]) it was 101%; at CLK2 (setting [2]), 102%; on CLK2 (setting [3]), 99.7%.

These data come from paper PMC4979471 (Cell Death Discovery, 2015).
